Test results published in patent publication US5789395A, “Method of using tetracycline compounds for inhibition of endogenous nitric oxide production” (The Research Foundation of State University of New York, priority 1996, dated 1998).

What was measured:
renal mesangial cells = test: NO production by IFN-γ/LPS-stimulated renal mesangial cells (Greiss reaction); type: cell-based, rat; settings: for inhibition of NO production, time course: 24-72 hr; for Emax at 5 µg/mL: Rattus norvegicus, Mesangial cell, 5 μg/mL, 48 hr, P<0.01, read-out: inhibition of NO production, maximal effect
From the text: The use of IFN-γ to induce renal injury is a model of glomerulonephritis known in the art. Glomerulonephritis is characterized by increased production of NO.

collagenase = settings: cited from earlier work
iNOS [1] = test: iNOS activity (L-arginine-to-L-citrulline) in cell-free extracts of cells treated with modulator before LPS; type: cell-based, murine; settings: positive control
Procedure: Murine macrophage cells (RAW 264.7) were incubated with 20-80 μg/mL doxycycline or minocycline, 10 μM hydrocortisone (Sigma Chemical Co., St. Louis, Mo.), or 75 μM L-NMMA for 1-2 h, followed by addition of LPS at 100 ng/mL and incubation for 16-18 h. Cell-free extracts were prepared at the end of each time period. Specific activity of iNOS was determined in the cell-free extracts by monitoring the conversion of L-[^3 H]-arginine to L-[^3 H]-citrulline as described by Amin et al. (1995b) and Vyas et al. (1996).
Cell-free extracts were prepared as follows: Following induction by incubation with LPS, the cells were pelleted at 4° C. and resuspended in Tris buffer (10 mM, pH 7.4) containing 10 μg/mL each chymostatin, antipain, leupeptin and pepstatin, 1 mM DTT and 1 mM PMSF. Cells were lysed in a Polytron PT 1200 homogenizer (Kinematica AG, Switzerland) after 3 cycles of rapid freeze-thawing. The lysate was centrifuged at 16,000 rpm for 60 min at 4° C., and the supernatants were used as cell-free extracts.
The protein in the extracts was measured by BCA assay reagent using BSA as standard (Smith et al. 1985). The reaction mixture for iNOS assay consists of Tris 50 mM (pH 7.8); BSA 1 mg/mL; DTT 1 mM; CaCl2, 2 mM; FAD 10 μM; BH4 10,μM; L-arginine 30 μM; NADPH 1 mM. The reaction mixture was spiked with 1μL (250 nM) of L-[^3 H]-arginine (Dupont NEN, Boston, Mass.) (1 mCi/mL=37.0 MBq/mL). After 20 min the assays were terminated by heating the reaction mixture at 90° C. for 5 min. Ten microiters (≈100,000 cpm) of the supernatant was spotted on activated AVICEL TLC plates (Analtech, Newark, Del.). The TLC plates were developed in a solvent system consisting of ethanol:water:ammonia (80:16:4). Quantitation of the spot for L-[^3 H]-citrulline was performed by a Bioscan System 200 Imaging Scanner.

NOS = settings: competitive inhibitor; cited from earlier work
iNOS [2] = settings: in vitro; Amin et al. 1995b; cited from earlier work
[3] = tested on: iNOS expression in mesangial cells; settings: Pfeilschifter et al. (1995); cited from earlier work
[4] = tested on: iNOS expression in macrophages; settings: Nathan et al. 1994, Vodovotz et al. 1993; cited from earlier work
iNOS mRNA [5] = test: iNOS mRNA expression in LPS-stimulated RAW 264.7 cells (RT-PCR); type: cell-based, murine; settings: Mus musculus, RAW264.7, read-out: decrease of iNOS mRNA
Procedure: Doxycycline and minocycline may suppress iNOS before the synthesis of the enzyme, leading to inhibition of iNOS protein expression, specific activity and accumulation of nitrite. […] Therefore, to determine the level at which tetracycline inhibited iNOS protein expression, RAW 264.7 cells treated with LPS in the presence or absence of doxycycline and minocycline were analyzed for iNOS mRNA by semi-quantitative RT-PCR.
The presence of iNOS and β-actin mRNA in cells was analyzed by reverse transcription (RT) of total RNA followed by PCR amplification of the cDNA. The sense and antisense oligonucleotides for iNOS were, respectively, 5'-ACGGAGAAGCTTAGATCTGGAGCAGAAGTG-3'(142 to 171) (SEQ ID NO:1) and 5'-CTGCAGGTTGGACCACTGGATCCTGCCGAT-3' (767 to 796) (SEQ ID NO:2). The sense and antisense primers for β-actin were 5'-TCCTTCGTTGCCGGTCCACA-3' (44 to 63) (SEQ ID NO:3) and 5'-CGTCTCCGGAGTCCATCACA-3' (534 to 552) (SEQ ID NO:4), respectively. The predicted PCR product of the iNOS cDNA was 654 bp; that of the β-actin cDNA was 508 bp. The polymerase chain reaction was carried out in an automated DNA thermal cycle (Perkin-Elmer Cetus, Norwalk, Conn.). The total RNA was extracted using TRI-Reagent (MRC Inc., Cincinnati, Ohio). The cDNA was prepared from equal amounts (1-5 μg) of total RNA using a SuperScript™ RNase H Reverse Transcriptase (Gibco BRL, Gaithersburg, Md.). An equal amount of the cDNA was used to amplify the mRNA by PCR. PCR amplification was performed in 50 μL solution containing 1.5 mM MgCl2, 500 ng iNOS primer, 100 ng β-actin primer, 0.2 mM of each dNTP, 2.5 units of Taq DNA polymerase (Gibco). The cycle conditions for amplification of cDNA were 1 min at 94° C., 1-2 min at 55° C. and 3 min at 72° C. for 30 cycles for both iNOS and β-actin. The PCR product was analyzed by electrophoresis on 1.0% agarose gels.
RT-PCR analysis of iNOS and βactin mRNA expression in RAW 264.7 cells was carried out after stimulation with LPS±doxycycline or minocycline. […] Equal amounts of RNA were analyzed for iNOS and β-actin expression as described above.

133 kD iNOS = test: iNOS protein expression in LPS-activated RAW 264.7 cells (Western blot); type: cell-based, murine; settings: 10 μM, positive control
Procedure: RAW 264.7 cells were activated with 100 ng/mL LPS for 16-18 h, with and without doxycycline or minocycline (20-80 μg/mL) or with hydrocortisone (10 μM). Cell-free extracts were prepared as described above. The extract s were analyzed for 133 kD iNOS by Western blotting, using specific anti-iNOS antibodies.
Equal amounts of protein (25-50 μg) estimated by BCA reagent (Pierce, Rockford, Ill.) were loaded onto SDS-PAGE gels and stained to verify the concentrations of various protein fractions by examining the intensities of the protein bands on the gels. Western blot analysis was carried out from the same cell extracts. The Western-blotted membrane was probed with a specific anti-murine iNOS monoclonal antibody (Transduction Laboratories, Lexington, Ky.), as specified by the supplier. The same blot was also probed with an anti-actin antibody generously provided by Dr. James L. Lessard (Children's Hospital Medical Center, Cincinnati, Ohio). The blots were developed using the ECL Western blot system (Amersham, Arlington Heights, Ill.). Quantitation of the bands was performed using a densitometer from Molecular Dynamics (Sunnyvale, Calif.). FIG. 5 is representative.

iNOS mRNA [6] = test: iNOS mRNA expression in LPS-stimulated RAW cells (Northern blot); type: cell-based, murine; settings: Mus musculus
Procedure: Northern blot analysis of the iNOS MRNA expressed by the cells was then carried out to evaluate precisely the effect of iNOS expression in the presence of doxycycline and minocycline. The probes again were the iNOS and β-actin CDNA probes described above.
In this case, total RNA was isolated using TRI Reagent (MRC Inc., Cincinnati, Ohio). […] Briefly, 30 μg of RNA was subjected to electrophoresis in 1% agarose formaldehyde gel. The gel was then transferred via capillary action onto a nylon membrane (Zeta Probe, Bio-Rad Laboratories, Melville, N.Y.). The membrane was hybridized with [^32 P]-dCTP-labeled iNOS CDNA (4 kb SmaI fragment), a kind gift from Dr. James Cunningham (Harvard Medical School, Boston, Mass.). After hybridization, the blot was exposed to Kodak X-ray film (Kodak, Rochester, N.Y.) for 24-48 h with intensifying screens at -70° C. The β-actin probe was purchased from ClonTech (Palo Alto, Calif.) and probed as described above. Quantitation of the intensity of the iNOS/β-actin bands was performed using a phosphoimager (Molecular Dynamics, Sunnyvale, Calif.).

Compound: CC1(O)c2cccc(O)c2C(=O)C2=C(O)C3(O)C(=O)C(C(N)=O)=C(O)CC3CC21 (centres unmarked) [CMT-1, 4-dedimethylaminotetracycline]
- NO production (% of control) (renal mesangial cells; 10 μg/mL, after 48 hr): ~ 60 % of control
- anti-collagenase activity (collagenase): modest anti-collagenase activity

Compound: NC(=O)C1=C(O)C2(O)C(=O)C3=C(O)c4c(O)cccc4CC3CC2CC1=O (centres unmarked) [CMT-3, 6-demethyl-6-deoxy-4-dedimethylaminotetracycline]
- inhibition of NO production, time course (renal mesangial cells): time-dependent inhibition of NO production
- Emax at 5 µg/mL (renal mesangial cells): > 80%
- anti-collagenase activity (collagenase): high level of anti-collagenase activity

Compound: C[C@H]1c2cccc(O)c2C(O)=C2C(=O)[C@]3(O)C(O)=C(C(N)=O)C(=O)C[C@@H]3[C@@H](O)[C@@H]21 [CMT-8, 6-α-deoxy-5-hydroxy-4-dedimethylaminotetracycline]
- inhibition of NO production, time course (renal mesangial cells): time-dependent inhibition of NO production
- Emax at 5 µg/mL (renal mesangial cells): > 80%
- anti-collagenase activity (collagenase): high level of anti-collagenase activity

Compound: CN=C(N)NCCC[C@H](N)C(=O)O [L-NMMA]
- inhibition of iNOS activity (iNOS [1]; 75 μM): 64%
- inhibition of NOS activity (NOS): > 95%

Compound: CC(=O)n1ccnc1 [N-acetyl imidazole, N-acetylimidazole]
- inhibition of iNOS catalytic activity (iNOS [2]): inhibit iNOS catalytic activity in vitro

Compound: CC(=O)Oc1ccccc1C(=O)O [aspirin]
- inhibition of iNOS catalytic activity (iNOS [2]): inhibit iNOS catalytic activity in vitro

Compound: C[C@@H]1C[C@H]2[C@@H]3CCC4=CC(=O)C=C[C@]4(C)[C@@]3(F)[C@@H](O)C[C@]2(C)[C@@]1(O)C(=O)CO [dexamethasone]
- suppression of IL-1β-induced iNOS expression [3]: acts at multiple levels (including transcription of iNOS) to suppress IL-1β-induced iNOS expression

Compound: C[C@]12CCC(=O)C=C1CC[C@@H]1[C@@H]2[C@@H](O)C[C@@]2(C)[C@H]1CC[C@]2(O)C(=O)CO [hydrocortisone]
- suppression of iNOS expression [4]: suppress iNOS expression by decreasing mRNA expression
- inhibition at 10 µM (iNOS mRNA [5]): 50 to 100%
- inhibition of iNOS activity (iNOS [1]; 10 μM): 60%
- inhibition of iNOS protein expression (133 kD iNOS): 43%
- inhibition at 10 µM (iNOS mRNA [6]; read-out: inhibition of iNOS mRNA expression, 10 μM, doxycycline experiment (FIG. 6C)): 73%
- inhibition at 10 µM (iNOS mRNA [6]; read-out: inhibition of iNOS mRNA expression, 10 μM, minocycline experiment (FIG. 6D)): 76%

Compound: TGF-β1: suppresses iNOS expression in macrophages
- suppression of iNOS expression [4]: suppress iNOS expression by decreasing mRNA expression
